Assays:
oCOX-1 = target: T1, oCOX-1 (Ovis aries, UniProt P05979); conditions: enzyme specific activity in the presence of arachidonic acid 100 µM and the inhibitor
T1 sequence (P05979 25-600): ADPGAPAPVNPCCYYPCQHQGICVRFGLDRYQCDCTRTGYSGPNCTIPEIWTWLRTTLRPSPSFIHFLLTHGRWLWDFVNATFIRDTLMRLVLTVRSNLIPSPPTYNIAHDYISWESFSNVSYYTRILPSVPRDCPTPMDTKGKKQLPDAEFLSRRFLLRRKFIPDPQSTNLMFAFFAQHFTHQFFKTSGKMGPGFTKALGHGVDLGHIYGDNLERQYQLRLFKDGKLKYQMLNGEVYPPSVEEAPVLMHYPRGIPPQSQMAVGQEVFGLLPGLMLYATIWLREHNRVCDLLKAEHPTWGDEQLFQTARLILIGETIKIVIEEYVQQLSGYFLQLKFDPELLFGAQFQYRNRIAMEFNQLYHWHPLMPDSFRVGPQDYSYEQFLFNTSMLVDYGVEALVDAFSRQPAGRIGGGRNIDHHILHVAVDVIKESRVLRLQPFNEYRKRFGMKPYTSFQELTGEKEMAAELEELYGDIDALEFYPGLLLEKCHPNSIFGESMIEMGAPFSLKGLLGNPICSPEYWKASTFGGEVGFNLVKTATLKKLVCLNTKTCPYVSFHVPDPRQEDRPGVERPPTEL
Description: (§1) Functional analysis of ovine and human COX-1 catalytic activity was determined by monitoring O2 consumption by using an Oxytherm electrode unit (Hansatech), in the presence of arachidonic acid and different inhibitors. The instrument is equipped with a Clark-type oxygen electrode to monitor the dissolved oxygen concentration in a sealed measurement chamber over the time. Oxygen consumption was measured at 37 °C directly in a 1000 µL reaction vessel. Briefly, it follows the description of a typical assay: Oxygraph buffer (the opportune volume is adjusted to 1000 µL of final volume according to the volume of the protein), 5 µM hemin (1 µL), 100 µM arachidonic acid (20 µL) and inhibitor (10 µL) at the opportune concentrations.
(§2) Oxygen consumption determination (μmol/ml O2) started after the addition of the ovine or human COX-1/Sf9 sonicated pellet (C = 2.6 mg/ml) to the mixture containing Oxygraph buffer, arachidonic acid and test compounds at the opportune concentrations. Assay mixture was allowed to equilibrate in the reaction vessel at 37 °C for several minutes until steady baseline was recorded. Uninfected Sf9 sonicated cells were used as a negative control. Stock solutions were prepared in a minimum volume of vehicle (DMSO).

hCOX-1 = hCOX-1 (Homo sapiens, UniProt P23219); conditions: enzyme specific activity in the presence of arachidonic acid 100 µM and the inhibitor
Description: as §1, §2

hCOX-1, sequence (P23219 24-599): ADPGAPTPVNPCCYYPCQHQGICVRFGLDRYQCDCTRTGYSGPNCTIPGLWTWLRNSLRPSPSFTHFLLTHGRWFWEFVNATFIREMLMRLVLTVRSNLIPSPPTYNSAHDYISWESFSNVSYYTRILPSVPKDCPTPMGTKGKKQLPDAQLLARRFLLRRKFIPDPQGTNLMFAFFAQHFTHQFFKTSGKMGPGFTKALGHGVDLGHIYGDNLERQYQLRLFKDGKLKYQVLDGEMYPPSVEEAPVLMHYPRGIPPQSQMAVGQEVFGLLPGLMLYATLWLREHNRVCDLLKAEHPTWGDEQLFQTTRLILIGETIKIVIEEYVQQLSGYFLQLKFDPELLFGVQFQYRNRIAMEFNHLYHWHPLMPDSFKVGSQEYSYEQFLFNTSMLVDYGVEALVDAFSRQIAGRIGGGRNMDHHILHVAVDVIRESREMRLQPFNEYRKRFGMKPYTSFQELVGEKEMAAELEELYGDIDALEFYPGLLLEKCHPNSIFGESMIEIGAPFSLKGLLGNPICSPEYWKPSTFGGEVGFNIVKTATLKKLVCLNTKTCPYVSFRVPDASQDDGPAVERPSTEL

Specific activity oCOX-1 (oCOX-1): 3.5 µmol/min/mg | Specific activity hCOX-1 (hCOX-1): 4.5 µmol/min/mg
Structure (SMILES): COc1ccc(-c2noc(CC(=O)O)c2-c2ccc(OC)cc2)cc1 [mofezolac]
